# From US10280416B1, “Magnetic ionic liquids, methods of making and uses thereof as solvents in the extraction and preservation of nucleic acids” (The University of Toledo, priority 2015, dated 2019)
# How the values were obtained:
# [1] = effective magnetic moment, Evans magnetic susceptibility balance; assay type: physicochemical; settings: measured at 295K
# From the text: The paramagnetic properties of MILs provide a unique advantage over conventional ILs by permitting control over substrate motion through the application of an external magnetic field. […] The general expression for molar magnetic susceptibility using the Evans balance is shown in eq 1:
# [formula] where XM represents the molar magnetic susceptibility, Cbal is the balance calibration constant, L corresponds to the length of the sample in the tube, M is the molecular weight of the compound being measured, R is the instrument reading for the sample in the tube, Ro is the instrument reading for the empty sample tube, and m is the mass of sample introduced into the Evan's balance. From XM, it is possible to calculate μeff according to eq 2: μeff=2.83√{square root over (XMT)} (2) where T is the absolute temperature. […] In order to increase the magnetic susceptibility of MILs, multiple paramagnetic iron(III) centers were incorporated into the MIL structure. […] The iron(III)-based MILs represent an inexpensive and useful alternative to MILs based on lanthanides, such as Dy(III) (μeff=10.6 μB). Moreover, the higher response of MILs 10 and 11 toward magnetic fields enables the use of smaller magnets with lower field strength for their manipulation in solution, which is useful in miniaturized magnet-based systems.
# [2] = solubility of MILs in water; assay type: physicochemical
# From the text: Independent of the substituent functional groups imparted by the quaternization reaction, MILs 1-3 were immiscible with water at compositions as low as 0.1% (w/v) MIL. The hydrophobic properties of the monocationic MILs are thus useful for applications such as aqueous liquid-liquid microextractions, where extremely low phase ratios of extraction solvent are employed.
# [3] = target: T1, albumin from chicken egg white (Gallus gallus, UniProt P01012); assay: MIL-based DDE, coextraction of protein from stDNA/albumin matrix; settings: pH 4.4; albumin 3.4 μM, stDNA 4.17 nM
# T1 construct: albumin from chicken egg white; purchased Sigma-Aldrich (St. Louis, Mo., USA); host or cells: chicken egg white (natural source)
# T1 sequence (P01012 1-386): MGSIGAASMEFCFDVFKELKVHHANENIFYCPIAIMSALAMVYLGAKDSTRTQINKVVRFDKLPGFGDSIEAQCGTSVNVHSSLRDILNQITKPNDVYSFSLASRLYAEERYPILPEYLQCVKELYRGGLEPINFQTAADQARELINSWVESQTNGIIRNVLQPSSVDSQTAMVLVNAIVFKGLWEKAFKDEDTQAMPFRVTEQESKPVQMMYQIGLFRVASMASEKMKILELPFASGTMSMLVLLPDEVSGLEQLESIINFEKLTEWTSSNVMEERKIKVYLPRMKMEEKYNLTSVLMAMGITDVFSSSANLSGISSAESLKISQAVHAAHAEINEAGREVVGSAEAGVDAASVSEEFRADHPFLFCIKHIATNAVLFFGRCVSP
# Description: High performance liquid chromatography with UV detection was performed on a LC-20A liquid chromatograph (Shimadzu, Japan) consisting of two LC-20AT pumps, a SPD-20 UV/vis detector, and a DGU-20A3 degasser. Chromatographic separations were performed on a 35 mm×4.6 mm i.d.×2.5 μm TSKgel DEAE-NPR anion exchange column with a 5 mm×4.6 mm i.d.×5 μm TSKgel DEAE-NPR guard column from Tosoh Bioscience (King of Prussia, Pa.). The column was equilibrated with a mobile phase composition of 50:50 (A) 20 mM Tris-HCl (pH 8), and (B) 1 M NaCl/20 mM Tris-HCl (pH 8). For stDNA analysis, gradient elution was performed beginning with 50% mobile phase B and increased to 100% B over 10 min. In the separation of ssDNA as well as DNA and albumin, the column was first equilibrated with 20 mM Tris-HCl followed by gradient elution from 0% to 50% B over 10 min and then 50% to 100% B over 5 min. A flow rate of 1 mL min−1 was used for all HPLC separations. DNA and albumin were detected at 260 and 280 nm, respectively.
# Sample matrices containing either metal ions or protein (albumin) were prepared from stock solutions. A sample solution containing 388 mM NaCl, 153 mM KCl, 38.1 mM CaCl2.2H2O, 28.3 mM MgCl2.6H2O, and 4.17 nM stDNA was extracted in triplicate using MIL-based DDE for all three MILs. For experiments involving protein as a matrix component, the samples were prepared at an albumin concentration of 3.4 μM and stDNA concentration of 4.17 nM with the pH varied from 3.5 to 8.
# [4] = thermal stability by thermal gravimetric analysis (TGA); settings: temperature at which 5 wt % loss of MIL is observed
# [5] = solubility of MILs in hexanes; assay type: physicochemical
Compound,μeff (effective magnetic moment) [1] [μB],solubility in water [2],albumin extraction efficiency [3] [%],thermal stability [4] [°C],solubility in hexanes [5]
CCCCCCCC[N+](CCCCCCCC)(CCCCCCCC)Cc1cccc(OC)c1.[Cl][Fe-]([Cl])([Cl])[Br] [MIL 2],5.60,I^d (Insoluble at 0.1% (w/v)),–,–,–
CCCCCCCC[N+](CCCCCCCC)(CCCCCCCC)Cc1ccc(C(C)(C)C)cc1.[Cl][Fe-]([Cl])([Cl])[Br] [MIL 3],5.68,I^d (Insoluble at 0.1% (w/v)),–,–,–
CCCCCCCCCCCCCCCCn1cc[n+](CCCCCCCCCCCC[n+]2ccn(CCCCCCCCCCCCCCCC)c2C)c1C.O=S(=O)([N-]S(=O)(=O)C(F)(F)F)C(F)(F)F.[Cl][Fe-]([Cl])([Cl])[Br] [MIL 4b],5.37,I^e (Insoluble at 0.25% (w/v)),–,–,–
CCCCCCCCCCCCCCCCn1c[n+](CCCCCCCCCCCC[n+]2cn(CCCCCCCCCCCCCCCC)c3ccccc32)c2ccccc21.O=S(=O)([N-]S(=O)(=O)C(F)(F)F)C(F)(F)F.[Cl][Fe-]([Cl])([Cl])[Br] [MIL 6],5.69,Id,~40,–,–
CCCCCCCCCCCCCCCCn1c[n+](CCCCCCCCCCCC[n+]2cn(CCCCCCCCCCCCCCCC)c3ccccc32)c2ccccc21.[Cl][Fe-]([Cl])([Cl])[Br].[Cl][Fe-]([Cl])([Cl])[Br] [MIL 6c],7.58,I^e (Insoluble at 0.25% (w/v)),–,–,–
O=S(=O)([N-]S(=O)(=O)C(F)(F)F)C(F)(F)F.[Cl][Fe-]([Cl])([Cl])[Br].c1ccc(Cn2c[n+](CCCCCCCCCCCC[n+]3cn(Cc4ccccc4)c4ccccc43)c3ccccc32)cc1 [MIL 7],5.45,I^d (Insoluble at 0.1% (w/v)),–,–,–
CCCCCCCCCCCCCCCCn1c[n+](CCCCCCCCCCCC[n+]2ccn(Cc3ccccc3)c2)c2ccccc21.O=S(=O)([N-]S(=O)(=O)C(F)(F)F)C(F)(F)F.[Cl][Fe-]([Cl])([Cl])[Br] [MIL 8],5.30,I^d (Insoluble at 0.1% (w/v)),–,–,–
CCCCCCCCSCCC[n+]1ccn(Cc2cc(Cn3cc[n+](CCCSCCCCCCCC)c3)cc(Cn3cc[n+](CCCSCCCCCCCC)c3)c2)c1.[Cl][Fe-]([Cl])([Cl])[Br].[Cl][Fe-]([Cl])([Cl])[Br].[Cl][Fe-]([Cl])([Cl])[Br] [MIL 11],11.76,I^e (Insoluble at 0.25% (w/v)),–,–,–
"CCCCCCCCCCCCCC[P+](CCCCCC)(CCCCCC)CCCCCC.[Cl][Fe-]([Cl])([Cl])[Cl] [[P6,6,6,14+][FeCl4−], trihexyl(tetradecyl)phosphonium tetrachloroferrate(III), reference compound]",–,–,~40,–,–
benzyltrioctylammonium bromotrichloroferrate(III) [MIL 1],5.26,I^d (Insoluble at 0.1% (w/v)),5.0,258,I
